What was measured:
HEK293 cells [1] = test: Preliminary screening as mRNA vectors, EGFP mRNA transfection of HEK293 cells; type: cell-based; conditions: HEK293 cells, 96-well plates, EGFP mRNA 50 ng per well; percentage of GFP fluorescent cells relative to total number of cells (Hoechst)
Method in brief: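 Each well of HEK293 cells received 50 ng of EGFP mRNA. Efficiency was expressed as percent GFP-expressing cells over Hoechst-defined total cell number.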

HEK293 cells [2] = test: Preliminary screening as DNA vectors, GFP transfection of HEK293 cells; type: cell-based; conditions: HEK293 cells; lipid/DOPE liposome with 75 ng plasmid DNA (psin-EGFP-IRES-Puro); number of cells expressing GFP divided by total number of nuclei (Hoechst)
Method in brief: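 Lipid + DOPE liposomes (NaOAc, pH 5.6) complexed w/ 75 ng psin-EGFP-IRES-Puro, 30 min RT; added to 3-5×10^4 HEK293/well, 37° C. Hoechst 0.2 μg/mL at 20-24 h, imaged after further 20-24 h. Efficiency = GFP+ cells / total nuclei.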

SMILES | Absolute mRNA transfection efficiency in HEK293 cells (HEK293 cells [1]) | Absolute DNA transfection efficiency in HEK293 cells (HEK293 cells [2])
CCCCCCCCCCCCCNc1nc(NCCCCCCCCCCC)nc(NCCN2CCCCC2)n1 [Compound N11N13D4] | 0.9% | 0.0%
CCCCCCCCCCCCCNc1nc(NCCCCCCCCCCC)nc(NCCN2CCN(C)CC2)n1 [Compound N11N13D5] | 0.2% | 0.1%
CCCCCCCCCCCCCNc1nc(NCCCCCCCCCCC)nc(NCCCN(C)C)n1 [Compound N11N13D6] | 0.2% | 0.8%
CCCCCCCCCCCCCNc1nc(NCCCCCCCCCCC)nc(NCCN(CC)CC)n1 [Compound N11N13D7] | 0.9% | 0.5%
CCCCCCCCCCCCCNc1nc(NCCCCCCCCCCC)nc(NCCCN2CCOCC2)n1 [Compound N11N13D8] | 0.6% | 0.0%
CCCCCCCCCCCCCNc1nc(NCCCCCCCCCCC)nc(NCCCN2CCN(C)CC2)n1 [Compound N11N13D9] | 7.1% | 0.0%
CCCCCCCCCCCCCNc1nc(NCCCCCCCCCCC)nc(NCC2CCN(C)CC2)n1 [Compound N11N13D10] | 0.0% | 0.0%
CCCCCCCCCCCCCCCNc1nc(NCCCCCCCCCCC)nc(NCCN(C)C)n1 [Compound N11N15D1] | 0.6% | 1.3%
CCCCCCCCCCCCCCCNc1nc(NCCCCCCCCCCC)nc(NCCN2CCOCC2)n1 [Compound N11N15D2] | 0.7% | 0.3%
CCCCCCCCCCCCCCCNc1nc(NCCCCCCCCCCC)nc(NCCN2CCCC2)n1 [Compound N11N15D3] | 2.7% | 0.3%
CCCCCCCCCCCCCCCNc1nc(NCCCCCCCCCCC)nc(NCCN2CCCCC2)n1 [Compound N11N15D4] | 2.8% | 0.9%
CCCCCCCCCCCCCCCNc1nc(NCCCCCCCCCCC)nc(NCCN2CCN(C)CC2)n1 [Compound N11N15D5] | 0.8% | 0.2%
CCCCCCCCCCCCCCCNc1nc(NCCCCCCCCCCC)nc(NCCCN(C)C)n1 [Compound N11N15D6] | 0.3% | 1.6%
CCCCCCCCCCCCCCCNc1nc(NCCCCCCCCCCC)nc(NCCN(CC)CC)n1 [Compound N11N15D7] | 0.0% | 0.2%
CCCCCCCCCCCCCCCNc1nc(NCCCCCCCCCCC)nc(NCCCN2CCOCC2)n1 [Compound N11N15D8] | 0.5% | 1.1%
CCCCCCCCCCCCCCCNc1nc(NCCCCCCCCCCC)nc(NCCCN2CCN(C)CC2)n1 [Compound N11N15D9] | 0.3% | 0.1%
CCCCCCCCCCCCCCCNc1nc(NCCCCCCCCCCC)nc(NCC2CCN(C)CC2)n1 [Compound N11N15D10] | 1.6% | 0.4%
CCCCCCCCCCCCCCCCNc1nc(NCCCCCCCCCCC)nc(NCCN(C)C)n1 [Compound N11N16D1] | 0.6% | 0.4%
CCCCCCCCCCCCCCCCNc1nc(NCCCCCCCCCCC)nc(NCCN2CCOCC2)n1 [Compound N11N16D2] | 1.0% | 0.0%
CCCCCCCCCCCCCCCCNc1nc(NCCCCCCCCCCC)nc(NCCN2CCCC2)n1 [Compound N11N16D3] | 3.6% | 1.2%
CCCCCCCCCCCCCCCCNc1nc(NCCCCCCCCCCC)nc(NCCN2CCCCC2)n1 [Compound N11N16D4] | 0.0% | 0.1%
CCCCCCCCCCCCCCCCNc1nc(NCCCCCCCCCCC)nc(NCCN2CCN(C)CC2)n1 [Compound N11N16D5] | 2.5% | 0.0%
CCCCCCCCCCCCCCCCNc1nc(NCCCCCCCCCCC)nc(NCCCN(C)C)n1 [Compound N11N16D6] | 1.4% | 0.2%
CCCCCCCCCCCCCCCCNc1nc(NCCCCCCCCCCC)nc(NCCN(CC)CC)n1 [Compound N11N16D7] | 0.7% | 0.0%

SMILES | Absolute mRNA transfection efficiency in HEK293 cells (HEK293 cells [1]) | Absolute DNA transfection efficiency in HEK293 cells (HEK293 cells [2])
CCCCCCCCCCCCCCCCNc1nc(NCCCCCCCCCCC)nc(NCCCN2CCOCC2)n1 [Compound N11N16D8] | 0.4% | 0.0%
CCCCCCCCCCCCCCCCNc1nc(NCCCCCCCCCCC)nc(NCCCN2CCN(C)CC2)n1 [Compound N11N16D9] | 0.9% | 0.0%
CCCCCCCCCCCCCCCCNc1nc(NCCCCCCCCCCC)nc(NCC2CCN(C)CC2)n1 [Compound N11N16D10] | 1.1% | 0.6%
CCCCCCCCCCCCCCCCCCNc1nc(NCCCCCCCCCCC)nc(NCCN(C)C)n1 [Compound N11N18D1] | 7.2% | 3.4%
CCCCCCCCCCCCCCCCCCNc1nc(NCCCCCCCCCCC)nc(NCCN2CCOCC2)n1 [Compound N11N18D2] | 0.8% | 0.3%
CCCCCCCCCCCCCCCCCCNc1nc(NCCCCCCCCCCC)nc(NCCN2CCCC2)n1 [Compound N11N18D3] | 2.8% | 0.6%
CCCCCCCCCCCCCCCCCCNc1nc(NCCCCCCCCCCC)nc(NCCN2CCCCC2)n1 [Compound N11N18D4] | 2.3% | 1.9%
CCCCCCCCCCCCCCCCCCNc1nc(NCCCCCCCCCCC)nc(NCCN2CCN(C)CC2)n1 [Compound N11N18D5] | 0.0% | 1.4%
CCCCCCCCCCCCCCCCCCNc1nc(NCCCCCCCCCCC)nc(NCCCN(C)C)n1 [Compound N11N18D6] | 0.0% | 0.4%
CCCCCCCCCCCCCCCCCCNc1nc(NCCCCCCCCCCC)nc(NCCN(CC)CC)n1 [Compound N11N18D7] | 4.0% | 1.1%
CCCCCCCCCCCCCCCCCCNc1nc(NCCCCCCCCCCC)nc(NCCCN2CCOCC2)n1 [Compound N11N18D8] | 1.2% | 2.2%
CCCCCCCCCCCCCCCCCCNc1nc(NCCCCCCCCCCC)nc(NCCCN2CCN(C)CC2)n1 [Compound N11N18D9] | 1.7% | 0.0%
CCCCCCCCCCCCCCCCCCNc1nc(NCCCCCCCCCCC)nc(NCC2CCN(C)CC2)n1 [Compound N11N18D10] | 1.6% | 0.2%
CCCCCCCCCCCCNc1nc(NCCCCCCCCCCCC)nc(NCCN(C)C)n1 [Compound N12N12D1] | 0.2% | 0.1%
CCCCCCCCCCCCNc1nc(NCCCCCCCCCCCC)nc(NCCN2CCOCC2)n1 [Compound N12N12D2] | 1.0% | 0.2%
CCCCCCCCCCCCNc1nc(NCCCCCCCCCCCC)nc(NCCN2CCCC2)n1 [Compound N12N12D3] | 3.8% | 1.9%
CCCCCCCCCCCCNc1nc(NCCCCCCCCCCCC)nc(NCCN2CCCCC2)n1 [Compound N12N12D4] | 2.2% | 0.4%
CCCCCCCCCCCCNc1nc(NCCCCCCCCCCCC)nc(NCCN2CCN(C)CC2)n1 [Compound N12N12D5] | 0.8% | 0.4%
CCCCCCCCCCCCNc1nc(NCCCCCCCCCCCC)nc(NCCCN(C)C)n1 [Compound N12N12D6] | 0.8% | 0.3%
CCCCCCCCCCCCNc1nc(NCCCCCCCCCCCC)nc(NCCN(CC)CC)n1 [Compound N12N12D7] | 0.6% | 0.1%
CCCCCCCCCCCCNc1nc(NCCCCCCCCCCCC)nc(NCCCN2CCOCC2)n1 [Compound N12N12D8] | 0.3% | 0.0%
CCCCCCCCCCCCNc1nc(NCCCCCCCCCCCC)nc(NCCCN2CCN(C)CC2)n1 [Compound N12N12D9] | 1.5% | 0.0%
CCCCCCCCCCCCNc1nc(NCCCCCCCCCCCC)nc(NCC2CCN(C)CC2)n1 [Compound N12N12D10] | 0.6% | 0.5%
